Measured values reported in the supplement of paper PMC10307832.

Columns and labels:
Experiment in all cases: relative viability (nuclei count vs DMSO), 5 days (fraction); higher = more cells survive
IDH-C35 + Pemetrexed = compound: Cc1ccccc1C(C(=O)NC1CCCCC1)N(C(=O)Cn1ccnc1C)c1cccc(F)c1 [IDH-C35] + Nc1nc2[nH]cc(CCc3ccc(C(=O)N[C@@H](CCC(=O)O)C(=O)O)cc3)c2c(=O)[nH]1 [Pemetrexed] (partner 0.2 µM)
In short: (§1)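 Dosing by pin tool came one day after lung cancer cell lines were seeded in 1536-well plates, using either one drug or a fixed anchor-drug dose plus five library-drug doses (not always all listed) in √10 steps. After 5 days, nuclei were counted on 4× images. Relative viability is treated-well nuclei count divided by vehicle-well nuclei count, and values are medians of duplicate plates.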

IDH-C35 + Alpelisib = compound: Cc1ccccc1C(C(=O)NC1CCCCC1)N(C(=O)Cn1ccnc1C)c1cccc(F)c1 [IDH-C35] + Cc1nc(NC(=O)N2CCC[C@H]2C(N)=O)sc1-c1ccnc(C(C)(C)C(F)(F)F)c1 [Alpelisib] (partner 2 µM)
In short: as §1

[1] = compound: CC1=C(C(=NN1)C)CC2=C(C3=C(S2)N(C(=O)N(C3=O)C)CC(C)C)C(=O)N4C[C@@H](CO4)O + CC1(C)CCC(c2ccc(Cl)cc2)=C(CN2CCN(c3ccc(C(=O)NS(=O)(=O)c4ccc(N[C@H](CCN5CCOCC5)CSc5ccccc5)c(S(=O)(=O)C(F)(F)F)c4)cc3)CC2)C1 [Navitoclax] (partner 0.5 µM)
In short: as §1

[2] = compound: CC1=C(C(=NN1)C)CC2=C(C3=C(S2)N(C(=O)N(C3=O)C)CC(C)C)C(=O)N4C[C@@H](CO4)O + N=C(N)NC(=N)NCCc1ccccc1 [Phenformin] (partner 250 µM)
In short: as §1

UMC-11
relative viability (IDH-C35 + Pemetrexed; first compound 0.08 µM): 0.811 | relative viability (IDH-C35 + Pemetrexed; first compound 0.253 µM): 0.915 | relative viability (IDH-C35 + Pemetrexed; first compound 0.8 µM): 0.804 | relative viability (IDH-C35 + Pemetrexed; first compound 2.53 µM): 0.853 | relative viability (IDH-C35 + Pemetrexed; first compound 8 µM): 0.88 | relative viability (IDH-C35 + Alpelisib; first compound 0.08 µM): 0.998 | relative viability (IDH-C35 + Alpelisib; first compound 0.253 µM): 0.973 | relative viability (IDH-C35 + Alpelisib; first compound 0.8 µM): 0.928 | relative viability (IDH-C35 + Alpelisib; first compound 2.53 µM): 0.946 | relative viability (IDH-C35 + Alpelisib; first compound 8 µM): 0.988 | relative viability ([1]; first compound 0.0025 µM): 0.31 | relative viability ([1]; first compound 0.007906 µM): 0.215 | relative viability ([1]; first compound 0.025 µM): 0.233 | relative viability ([1]; first compound 0.07906 µM): 0.211 | relative viability ([1]; first compound 0.25 µM): 0.199 | relative viability ([2]; first compound 0.0025 µM): 0.168 | relative viability ([2]; first compound 0.007906 µM): 0.195 | relative viability ([2]; first compound 0.025 µM): 0.156 | relative viability ([2]; first compound 0.07906 µM): 0.17 | relative viability ([2]; first compound 0.25 µM): 0.188
